The target of this test is T1, F508delCFTR (Homo sapiens, UniProt P13569, DEL508-508).
T1 construct: expressed in transfected cells; host or cells: CFBE41o- human lung-derived epithelial cells (CFBE4lo-F508delCFTR-HRP), doxycycline-inducible
The test is described as follows: Cell Surface Expression-Horse Radish Peroxidase (CSE-HRP) Assay.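 On Maximum % activity (with co-corrector): co-corrector and positive control are both the same reference corrector at 2 µM.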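 On Maximum % activity (without co-corrector): percent of the 2 µM on-plate positive control corrector response above DMSO.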 It is filed as cell-based. Particulars: for Emax / Maximum % activity (with co-corrector): maximum at any tested concentration, normalized to on-plate positive control; for Emax: read-out: Maximum % activity (without co-corrector); for Maximum % activity (with co-corrector): with co-corrector (2 μM).

Where [1] appears, read: test compound without co-corrector.
The mark [2] stands for this setting: test compound without co-corrector, read-out: EC50 (without co-corrector).
Where [3] appears, read: with co-corrector (2 μM of 3-[(2R,4R)-4-({[1-(2,2-difluoro-1,3-benzodioxol-5-yl)cyclopropyl]carbonyl}amino)-7-methoxy-3,4-dihydro-2H-chromen-2-yl]benzoic acid), read-out: EC50 (with co-corrector).

One may read the EC50 as the concentration needed to bring the measured effect to its halfway point.

Molecules are shown by their SMILES. Read-outs that look alike come from different tables or passages of the source. Bounds are passed on as bounds.

T1 sequence (P13569 with tags, fused parts or gaps DEL508-508): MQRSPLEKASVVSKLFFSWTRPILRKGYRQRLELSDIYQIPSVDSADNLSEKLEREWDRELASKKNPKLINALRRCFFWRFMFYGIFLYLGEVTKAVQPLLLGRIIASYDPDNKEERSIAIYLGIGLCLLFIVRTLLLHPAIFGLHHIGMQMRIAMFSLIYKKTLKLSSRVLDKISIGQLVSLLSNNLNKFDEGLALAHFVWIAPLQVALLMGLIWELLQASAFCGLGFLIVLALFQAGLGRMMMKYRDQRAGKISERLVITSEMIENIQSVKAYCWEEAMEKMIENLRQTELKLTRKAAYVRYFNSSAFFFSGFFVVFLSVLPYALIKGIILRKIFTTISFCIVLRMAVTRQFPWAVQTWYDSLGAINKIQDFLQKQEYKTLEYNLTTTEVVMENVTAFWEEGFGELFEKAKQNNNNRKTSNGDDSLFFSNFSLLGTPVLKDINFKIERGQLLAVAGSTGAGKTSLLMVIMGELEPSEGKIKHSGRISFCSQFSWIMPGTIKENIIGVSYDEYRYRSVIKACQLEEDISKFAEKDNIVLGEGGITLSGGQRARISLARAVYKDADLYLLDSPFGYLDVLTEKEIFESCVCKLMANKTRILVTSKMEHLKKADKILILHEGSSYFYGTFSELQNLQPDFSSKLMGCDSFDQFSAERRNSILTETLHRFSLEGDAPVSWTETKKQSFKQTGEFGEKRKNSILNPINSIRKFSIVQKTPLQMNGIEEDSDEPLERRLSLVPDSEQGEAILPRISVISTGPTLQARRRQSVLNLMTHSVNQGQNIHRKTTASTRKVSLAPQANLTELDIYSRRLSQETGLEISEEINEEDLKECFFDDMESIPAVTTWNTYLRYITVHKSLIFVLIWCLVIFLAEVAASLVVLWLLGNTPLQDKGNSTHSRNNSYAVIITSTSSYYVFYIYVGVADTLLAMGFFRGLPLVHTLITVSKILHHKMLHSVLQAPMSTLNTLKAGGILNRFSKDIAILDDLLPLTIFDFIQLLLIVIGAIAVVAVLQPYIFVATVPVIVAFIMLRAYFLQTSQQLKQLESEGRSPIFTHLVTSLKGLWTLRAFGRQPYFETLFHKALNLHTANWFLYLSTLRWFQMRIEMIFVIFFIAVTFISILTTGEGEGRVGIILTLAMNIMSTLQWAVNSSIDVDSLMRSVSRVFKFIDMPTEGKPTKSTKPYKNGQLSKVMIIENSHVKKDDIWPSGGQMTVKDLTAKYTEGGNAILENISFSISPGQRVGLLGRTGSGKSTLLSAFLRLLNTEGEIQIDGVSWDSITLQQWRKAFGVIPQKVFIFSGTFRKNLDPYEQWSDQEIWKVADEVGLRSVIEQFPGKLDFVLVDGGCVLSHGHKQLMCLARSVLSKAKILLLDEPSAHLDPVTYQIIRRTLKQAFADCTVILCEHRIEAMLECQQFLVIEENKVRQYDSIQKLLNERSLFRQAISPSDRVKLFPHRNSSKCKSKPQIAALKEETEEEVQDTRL

Regarding `COc1ccc(OC(F)(F)F)cc1CN[C@H]1[C@H](C(C)(C)C)[C@@H](C(=O)O)N(C(=O)OC(C)C)[C@H]1c1cccnc1OC(C)C` [III-231], the “Maximum % activity (with co-corrector)” value is listed as “+++ (≥350)”. Further, under setting [1], the Emax is above 200%. The concentration giving a half-maximal response (EC50) under setting [2] lay within 1 to 10 µM. Also, the EC50 under setting [3] was in the range of 1 to 10 µM.

As to `CCC(C)(C)c1ccc(OC)c(CN[C@H]2[C@H](C(C)(C)C)[C@@H](C(=O)O)N(C(=O)OC(C)C)[C@H]2c2cccnc2N(C)C)c1` [III-232], the “Maximum % activity (with co-corrector)” value is reported as “+++ (≥350)”. Besides, under setting [1], the Emax is above 200%. In addition, the EC50 under setting [2] lay in the range of 1 to 10 µM. For the same compound, under setting [3], the 50% effective concentration (EC50) was in the range of 1 to 10 µM.

As for `COc1ccc(C2(C)CCC2)cc1CN[C@H]1[C@H](C(C)(C)C)[C@@H](C(=O)O)N(C(=O)[C@@H]2CCCCO2)[C@H]1c1cccnc1OC` [III-233], the “Maximum % activity (with co-corrector)” value was “+++ (≥350)”. The Emax under setting [1] was above 200%. The concentration for a half-maximal effect (EC50) under setting [2] is 1 to 10 µM. Under setting [3], the EC50 lay within 1 to 10 µM.

Regarding `COc1ccc(C2(C)CCC2)cc1CN[C@H]1[C@H](C(C)(C)C)[C@@H](C(=O)O)N(C(=O)[C@H]2CCCCO2)[C@H]1c1cccnc1OC` [III-234], the “Maximum % activity (with co-corrector)” value is listed as “+++ (≥350)”. For the same compound, the Emax under setting [1] is 100 to 200%. The EC50 under setting [2] lay in the range of 1 to 10 µM. For the same compound, the concentration for a half-maximal effect (EC50) under setting [3] was 1 to 10 µM.

Consider `CC(C)OC(=O)N1[C@H](C(=O)O)[C@@H](C(C)(C)C)[C@H](NCC2CCN(C(C)C)CC2)[C@@H]1c1ccccc1` [III-235], for which the “Maximum % activity (with co-corrector)” value is on record as “+ (<150)”. Moreover, under setting [1], the Emax is below 100%. For the same compound, the half-maximal effective concentration (EC50) under setting [2] was above 10 µM. For the same compound, the half-maximal effective concentration (EC50) under setting [3] was below 1 µM.

Consider `COc1ncc(C2CCC2)cc1CN[C@@H]1[C@@H](C(C)(C)C)[C@H](C(=O)O)N(C(=O)[C@@H]2CCCO2)[C@@H]1c1ccccc1Cl` [III-236], for which the “Maximum % activity (with co-corrector)” value was “++ (≥150 and <350)”. In addition, the Emax under setting [1] was below 100%. Further, the 50% effective concentration (EC50) under setting [2] is 1 to 10 µM. Also, under setting [3], the EC50 was in the range of 1 to 10 µM.

Source of the values: patent US20180099931A1 (AbbVie S.à.r.l., priority 2016, published 2018).
